Columns and labels:
[1] = biological target: T1, Tyrosine-protein phosphatase non-receptor type 1 (Homo sapiens, UniProt P18031); assay: Inhibition of human recombinant PTP1B pre-incubated for 10 mins before pnitrophenyl phosphate substrate addition and measured every 30 secs for 10 mins
T1 sequence (P18031 whole entry): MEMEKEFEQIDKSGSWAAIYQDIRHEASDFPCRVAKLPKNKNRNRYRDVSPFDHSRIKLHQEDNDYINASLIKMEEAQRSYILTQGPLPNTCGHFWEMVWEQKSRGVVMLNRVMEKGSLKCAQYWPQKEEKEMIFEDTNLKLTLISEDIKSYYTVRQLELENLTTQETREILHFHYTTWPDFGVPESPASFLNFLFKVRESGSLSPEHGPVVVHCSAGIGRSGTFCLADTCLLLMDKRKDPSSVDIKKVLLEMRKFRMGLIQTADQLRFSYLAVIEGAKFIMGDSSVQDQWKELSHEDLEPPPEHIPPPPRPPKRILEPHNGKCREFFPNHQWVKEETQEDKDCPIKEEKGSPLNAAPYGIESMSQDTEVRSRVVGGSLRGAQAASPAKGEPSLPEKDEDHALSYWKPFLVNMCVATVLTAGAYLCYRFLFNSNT

[2] = Inhibition of Saccharomyces cerevisiae alpha-glucosidase pre-incubated for 10 mins before p-nitrophenyl […]-D-glucopyranoside substrate addition and measured every 30 secs for 35 mins post substrate addition

Compound | IC50 ([1]; read-out: IC50) [µM] | IC50 [2] | IC50 ([2]; read-out: IC50) [µM] | IC50 [1]
C=CC(C)(C)c1cc(O)c(O)c2c(=O)c3cc4ccoc4c(O)c3oc12 | 45.2 |  | 134 | 
C=CC(C)(C)c1cc(O)c(O)c2c(=O)c3cc4c(c(O)c3oc12)OC(C)(C)C=C4 | 49.4 | Not Active |  | 
COc1c(O)cc2oc3cc4occc4c(O)c3c(=O)c2c1C/C=C(\C)CCC=C(C)C | 55.1 |  | 94.2 | 
C=CC(C)(C)c1cc(O)c2oc3c(O)c4c(cc3c(=O)c2c1O)C=CC(C)(C)O4 | 8 |  | 36.7 | 
C=CC(C)(C)c1cc(O)c2oc3c(O)c4occc4cc3c(=O)c2c1O | 26.8 |  | 142 | 
C=CC(C)(C)c1cc(O)c2oc3c(O)c(O)ccc3c(=O)c2c1O | 53 |  | 4.1 | 
C[C@H]1O[C@H](O[C@H]2[C@H](O)[C@@H](O)[C@@H](O[C@H]3[C@H](O)[C@@H](O)C(O)O[C@@H]3CO)O[C@@H]2CO)[C@H](O)[C@@H](O)[C@@H]1N[C@H]1C=C(CO)[C@@H](O)[C@H](O)[C@H]1O (stereo not given in full) [ACARBOSE] |  |  | 900 | 

More lines, now with the values ahead:

IC50 ([1]; read-out: IC50) [µM] | IC50 [2] | IC50 ([2]; read-out: IC50) [µM] | IC50 [1] | Compound
150 | Not Active |  |  | O=c1c2cc(O)ccc2oc2cccc(O)c12
73.2 |  | 29.8 |  | C=CC(C)(C)c1cc(O)c(O)c2c(=O)c3cccc(O)c3oc12
120 |  | 31.4 |  | O=c1c2cc(O)ccc2oc2ccc(O)c(O)c12
148 |  | 358 |  | O=c1c2cccc(O)c2oc2c(O)ccc(O)c12
85.5 |  | 27.5 |  | C=CC(C)(C)c1cc(O)c(O)c2c(=O)c3ccc(O)c(O)c3oc12
 |  | 85.5 | Not Active | C=CC(C)(C)c1cc(O)c2oc3c(O)cccc3c(=O)c2c1O
